Laboratory results: US11896678B2, “Compositions and methods for treatment of peroxisome proliferator-activated receptor gamma (PPARG) activated cancer” (THE BROAD INSTITUTE, INC., priority 2017, dated 2024)
One block for each molecule: values may come before it. Ends that are not written are not given here.

Tests used:
[1] = target: T1, PPARG ligand-binding domain (Homo sapiens, UniProt P37231); test: TR-FRET PPARG competition binding assay; conditions: maximal concentration tested 10 uM
T1 sequence (P37231 238-503 limits assumed): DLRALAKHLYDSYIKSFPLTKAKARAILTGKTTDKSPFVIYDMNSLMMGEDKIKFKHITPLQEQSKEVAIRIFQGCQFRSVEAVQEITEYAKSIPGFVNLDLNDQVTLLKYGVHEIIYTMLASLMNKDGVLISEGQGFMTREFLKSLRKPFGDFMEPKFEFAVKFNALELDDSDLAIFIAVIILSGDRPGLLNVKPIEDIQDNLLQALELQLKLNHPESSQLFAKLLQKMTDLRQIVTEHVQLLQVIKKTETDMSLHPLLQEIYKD
Procedure: To evaluate binding affinity, a PPARG competition binding assay that measures displacement of a fluorescent PPARG ligand from the PPARG ligand-binding domain was used.
Biochemical Assays: The LanthaScreen TR-FRET PPAR gamma Competitive Binding Assay and LanthaScreen TR-FRET PPAR gamma Coactivator Assay were obtained from ThermoFisher Scientific. Assays were performed according to the manufacturer's protocol. In order to assay inverse-agonism, the Coactivator assay was modified by the use of fluorescently labeled co-repressor peptides (NCoR1 ID2 peptide, SMRT ID2 peptide) to convert from agonist mode (coactivator recruitment) into inverse-agonist mode (corepressor recruitment).

[2] = target: T2, PPARG ligand-binding domain - TRAP220/MED1 coactivator peptide (Homo sapiens, UniProt P37231); test: TR-FRET coactivator assay, TRAP220/MED1 peptide; assay type: biochemical
T2 construct: purchased ThermoFisher Scientific
T2 sequence (P37231 238-503 limits assumed): T1 sequence (P37231 238-503 limits assumed)

PPARG = target: T3, PPARG (Homo sapiens, UniProt P37231); test: RT112/84 FABP4-NLucP reporter gene assay, unstimulated; assay type: cell-based
T3 construct: endogenous in cells; host or cells: RT112/84 bladder cancer cells (FABP4-NLucP knock-in clone)
T3 sequence (P37231 1-477 isoform P37231-2): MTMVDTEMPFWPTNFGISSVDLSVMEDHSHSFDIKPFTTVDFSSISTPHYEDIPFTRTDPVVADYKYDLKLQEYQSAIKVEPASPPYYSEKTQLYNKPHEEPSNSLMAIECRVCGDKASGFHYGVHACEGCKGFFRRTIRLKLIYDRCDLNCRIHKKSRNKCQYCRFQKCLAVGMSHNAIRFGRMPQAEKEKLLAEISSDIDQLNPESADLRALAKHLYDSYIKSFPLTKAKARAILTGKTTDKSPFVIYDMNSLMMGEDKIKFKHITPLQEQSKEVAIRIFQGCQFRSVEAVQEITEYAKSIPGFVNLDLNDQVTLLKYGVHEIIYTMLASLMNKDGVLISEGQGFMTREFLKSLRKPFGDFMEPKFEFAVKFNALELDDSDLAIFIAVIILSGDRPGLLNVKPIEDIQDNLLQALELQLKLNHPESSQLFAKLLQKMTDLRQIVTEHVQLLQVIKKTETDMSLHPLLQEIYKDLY
Description: Next, a PPARG reporter cell line was engineered to enable higher throughput assays to evaluate PPARG transactivation. Briefly, a destabilized NanoLuc luciferase reporter gene was inserted into the 3′-UTR of the FABP4 gene in the RT112/84 bladder cancer cell line using CRISPR/Cas9 mediated homology-directed repair (FIG. 4A).
RT112-FABP4-NLucP Reporter Gene Assay: Reporter cell line was generated by engineering NanoLuc gene into the 3′ UTR of FABP4 in RT112/84 cells using CRISPR/Cas9 guided genome engineering. Single cell clones were generated and the clone with the widest dynamic range selected for use. Assays were performed by seeding 384-well plates with ˜10,000 cells per well in MEMalpha containing 10% FBS and dosing compounds at indicated concentration using HP D300 digital dispenser (HP/Tecan). 18-24 hours after dosing with compound, cells were assayed using NanoGlo Luciferase Assay Reagent (Promega Madison, WI) and plates were read using EnVision Multilabel Reader (PerkinElmer Waltham, MA).

UM-UC-9 cells [3] = test: Direct cell counting dose-response proliferation assay; assay type: cell-based, human
Procedure: To determine whether PPARG modulators affect the proliferation and/or viability of PPARG-activated bladder cancer cell lines, a direct cell counting-based assay was performed. This assay likely avoids potential artifacts associated with the use of an ATP content-based assay, given that PPAR modulators are known to regulate cellular metabolic activity. […] These IC50 values align well with the calculated IC50s from both the cell-based reporter gene assay (FIG. 8A) and the biochemical corepressor assay (FIG. 8D).
(§1) Proliferation Assays: To enable cell-counting experiments, cell lines were transduced with a lentiviral vector encoding nuclear-targeted GFP, TagGFP2-H2B (Evrogen), and stable pools generated following selection for puromycin resistance. Cell lines were maintained for at least 7 days following selection prior to expansion and seeding into 96- or 384-well plates for further analysis. For kinetic proliferation assays, 96-well plates (n 1% 4 per condition) were imaged and counted every two hours using IncuCyte Zoom (Essen BioScience). Media and compounds were replaced approximately every 3-4 days. For endpoint assays to measure dose-response, cells were plated in 384-well plates, dosed with compound, and upon reaching approximately 70% to 90% confluence in control wells, cells were either counted using fluorescence imaging (Incu-Cyte Zoom) or incubated with CyQuant (Thermo Fisher) at the indicated time and plates were read with a fluorescent plate reader.

[4] = system: PPARG-activated bladder cancer cell lines; test: Proliferation assays in PPARG-activated bladder cancer cell lines; assay type: cell-based, human; conditions: 100 nM-500 nM
Procedure: A panel of bladder cancer cell lines with PPARG modulators in colony formation assays was then tested (FIG. 10), kinetic proliferation assays (IncuCyte Zoom; Essen Bioscience) using cell lines treated with a single concentration of compound (100 nM-500 nM), and end-point dose-response assays (CellTiter Glo or CyQuant).
This assay was expanded to include an additional 8 representative bladder cancer cell lines, including cell lines with PPARG amplification, RXRA p.S427F mutation, activated gene signature, and control cell lines with low level expression of PPARG and target genes. […] Representative data for the UM-UC-9 cell line are shown in FIG. 6B, and is tabulated for the tested bladder cancer cell lines in Table 1. […] This significant (P<0.01) preferential sensitivity to PPARG inverse-agonists, but not antagonists, is maintained across all of the PPARG-activated cell lines in the panel, including the RXRA p.S427F cell line, HT-1197 (41), the PPARG-amplified cell lines, 5637 and UM-UC-9, and the PPARG activation gene signature cell lines Cal29, UM-UC-1, and RT112/84 (FIG. 12). […] Similar results were obtained with these cell lines in parallel studies using clonogenic assays to quantify colony-forming ability (FIG. 10).
as §1

[5] = system: PPARG target gene expression in UM-UC-9 cells; test: RNA sequencing of UM-UC-9 cells after 7 days dosing; assay type: cell-based, human; conditions: 500 nmol/L
Procedure: Next, the effects of long-term dosing on the transcriptional profile of the PPARG-amplified cell line, UMUC-9, were evaluated. Briefly, UM-UC-9 cells were treated for 7 days with various PPARG modulators dosed at 500 nmol/L and gene expression was analyzed using RNA sequencing. […] Genes that were more abundantly expressed upon treatment with inverse-agonists included ALPP, SPINK4, and ALDH1A3 (FIG. 5). […] In summary, the in vitro pharmacological properties of known PPARG modulators have been characterized and two distinct chemotypes with bona-fide inverse-agonist activity in PPARG-activated bladder cancer cells were identified.
RNAseq analysis: RNA was isolated using RNEasy (Qiagen) and an RNAseq library was prepared using NEBNext Ultra Directional RNA Library Prep Kit for Illumina and NEBNext Multiplex Oligos for Illumina (New England BioLabs). RNAseq sequencing was performed using an Illumina MiSeq instrument according to the manufacturers protocol. Sequence data was analyzed using Firehose (Broad Institute, Cambridge MA) to map transcripts and calculate RPKM (SW780 cDNA expression) or TPM (UM-UC-9).
For UM-UC-9 RNAseq experiment, the resulting reads were used to calculate transcript abundance in units of TPM (transcripts per million) (18), which were then adjusted using TMM normalization (19) for comparison. […]

[6] = system: PPARG-activated pancreatic and colorectal cancer cell lines; test: Kinetic proliferation assay in pancreatic and colorectal cancer cell lines; assay type: cell-based; conditions: 500 nM
Description: To enable cell-counting, cell lines were transduced with a lentiviral vector encoding nuclear-targeted GFP (TagGFP2-H2B), and stable pools generated following selection for puromycin-resistance. Cell lines were maintained for at least 7 days following selection prior to expansion and seeding into 96-well plates for further analysis. For kinetic proliferation assays, 96-well plates were imaged in phase-contrast and green fluorescence mode every two hours using IncuCyte Zoom (Essen BioScience, Ann Arbor MI). Using IncuCyte software, the number of fluorescent nuclei were counted to monitor quantitative changes in cell number over time. Media and compounds were replaced approximately every 3-4 days.
DMSO treatment was also included as a vehicle control.

[7] = target: T4, PPARG ligand-binding domain - SMRT/NCOR2 corepressor peptide (Homo sapiens, UniProt P37231); test: TR-FRET corepressor assay, SMRT/NCOR2 peptide; assay type: biochemical
T4 construct: purchased ThermoFisher Scientific
T4 sequence (P37231 238-503 limits assumed): T1 sequence (P37231 238-503 limits assumed)
Procedure: (§2) To evaluate inverse-agonism, a TR-FRET PPARG co-repressor assay (ThermoFisher) that measures recruitment of a fluorescent NCOR1 or NCOR2 corepressor peptide to the PPARG ligand-binding domain was used (ThermoFisher).
To determine effects on interactions between PPARG and coregulators, PPARG modulators were tested in two TR-FRET biochemical interaction assays for agonism and inverse-agonism. Agonism was quantitated using a coactivator assay, which measured the interaction between the PPARG ligand-binding domain and a fluorescently-labeled peptide from TRAP220/MED1. […] To evaluate inverse-agonism biochemically, ligand-dependent interactions were measured between PPARG ligand-binding domain and corepressor peptides from NCoR/NCOR1 and SMRT/NCOR2.

[8] = target: T5, PPARG ligand-binding domain - NCoR/NCOR1 corepressor peptide (Homo sapiens, UniProt P37231); test: TR-FRET corepressor assay, NCoR/NCOR1 peptide; assay type: biochemical; conditions: data not shown
T5 construct: purchased ThermoFisher Scientific
T5 sequence (P37231 238-503 limits assumed): T1 sequence (P37231 238-503 limits assumed)
Procedure: as §2
In addition to the PPARG-NCOR2 interaction assay described above, interactions between PPARG and a peptide from the corepressor NCOR1 were measured.

UM-UC-9 cells [9] = test: Kinetic proliferation assay (IncuCyte), percent of DMSO control; assay type: cell-based, human; conditions: 100 nmol/L; DMSO control at 50% confluency
Description: This assay was expanded to include an additional 8 representative bladder cancer cell lines, including cell lines with PPARG amplification, RXRA p.S427F mutation, activated gene signature, and control cell lines with low level expression of PPARG and target genes. […] Representative data for the UM-UC-9 cell line are shown in FIG. 6B, and is tabulated for the tested bladder cancer cell lines in Table 1. […] Similar results were obtained with these cell lines in parallel studies using clonogenic assays to quantify colony-forming ability (FIG. 10).
as §1, with “Cell lines were maintained for at least 7 days following selection prior to expansion and seeding into 96- or 384-well plates for further analysis.” left out, “Media and compounds were replaced approximately every 3-4 days.” left out

5637 cells = test: Proliferation assay in PPARG-amplified 5637 cells; assay type: cell-based; conditions: Homo sapiens; data not shown
Procedure: To determine if treatment of PPARG-activated bladder cancer cell lines with PPARG modulators impacted viability, a variety of compounds were tested in proliferation assays.

[10] = target: Terbium-labeled PPARG ligand binding domain (PPARG-LBD) (Macaca mulatta (Rhesus macaque)) (UniProt O18924); test: TR-FRET PPARG-NCOR1 interaction assay; with T0070907 (data not shown)
[11] = target: Terbium-labeled PPARG ligand binding domain (PPARG-LBD) (Macaca mulatta (Rhesus macaque)) (UniProt O18924); test: TR-FRET PPARG-NCOR1 interaction assay; with GW9662 (data not shown)
[12] = target: Terbium-labeled PPARG ligand binding domain (PPARG-LBD) (Macaca mulatta (Rhesus macaque)) (UniProt O18924); test: TR-FRET PPARG-NCOR1 interaction assay; with SR10221 (data not shown)
[13] = target: Terbium-labeled PPARG ligand binding domain (PPARG-LBD) (Macaca mulatta (Rhesus macaque)) (UniProt O18924); test: TR-FRET corepressor assay, PPARG-LBD and SMRT/NCOR2 peptide; with agonists rosiglitazone, tesaglitazar and GW9129 (so in the source)
[14] = target: Terbium-labeled PPARG ligand binding domain (PPARG-LBD) (Macaca mulatta (Rhesus macaque)) (UniProt O18924); test: TR-FRET corepressor assay, PPARG-LBD and SMRT/NCOR2 peptide; with antagonists GW9662 and SR2595
[15] = target: Terbium-labeled PPARG ligand binding domain (PPARG-LBD) (Macaca mulatta (Rhesus macaque)) (UniProt O18924); test: TR-FRET corepressor assay, PPARG-LBD and SMRT/NCOR2 peptide; with inverse-agonists T0070907 and SR10221

Molecule: CC(C)(c1ccc(OCC2CO2)cc1)c1ccc(OCC2CO2)cc1 (stereo not drawn) [BADGE, Bisphenol A diglycidyl ether]
binding to PPARG LBD, competition with fluorescent ligand [1]: weak activity | effect in coactivator assay [2]: minimal effect | effect on unstimulated reporter (PPARG): minimal detectable effect

Molecule: Cc1c(C)n(Cc2ccc(-c3ccccc3C(=O)O)cc2)c2ccc(C(=O)N[C@@H](C)c3ccc(C(C)(C)C)cc3)cc12 [SR2595]
effect on cell proliferation compared with DMSO control (UM-UC-9 cells [3]): no significant effects | sensitivity of cell lines [4]: not sensitive | hierarchical clustering of gene expression signatures [5]: cluster with vehicle-treated controls | sensitivity of cell lines [6]: not sensitive

induced signal [8]: less than 2 fold
Molecule: CC1=C2C=C(C(=O)N[C@@H](C)c3ccc(C(C)(C)C)cc3)C=CC2N(Cc2ccc(Cl)c(O[C@@H](C)C(=O)O)c2)C1C (stereo partly drawn) [SR10221]
effect on cell proliferation compared with DMSO control (UM-UC-9 cells [3]): significantly reduced proliferation | IC50 (UM-UC-9 cells [3]; Homo sapiens, UM-UC-9, read-out: calculated IC50, proliferation): 16 nM | sensitivity of cell lines [4]: preferentially sensitive | effect on PPARG-NCOR2 interaction [7]: induce interaction between PPARG and NCOR2 | reduction of proliferation relative to control (UM-UC-9 cells [9]): 80% | IC50 (5637 cells): 20 to 30 nM | sensitivity of cell lines [6]: preferentially sensitive

fold induction of signal [10]: 6 to 8 fold | fold induction of signal [11]: 2.5 fold | fold induction of signal [12]: < 2 fold
Molecule: DPASNLGLEDIIRKALMGSFDDK (also: fluorescently labeled, site not given here) [fluorescently labeled NCoR1 ID2 corepressor peptide (NCoR/NCOR1)]

decrease in signal [13]: 50 to 60% | fold increase in signal [14]: 1.7 fold | fold increase in signal [15]: 3 to 6 fold
Molecule: HASTNMGLEAIIRKALMGKYDQW (also: fluorescein-labeled, site not given here) [fluorescein-labeled SMRT ID2 corepressor peptide (SMRT/NCOR2)]
